Data: US11051515B2, “3-acyl-benzamides and their use as herbicides” (Bayer Aktiengesellschaft, priority 2017, dated 2021)

Columns and labels:
SETVI [1] = assay: Post-emergence action against SETVI; format: in vivo, Setaria viridis; settings: post-emergence, dosage 80 g/ha, visual assessment about 3 weeks after treatment vs untreated controls
Outline: (§1)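 Post-emergence foliar spray on greenhouse plants at the one-leaf stage, using wettable-powder or emulsion-concentrate formulations in water (600 to […], plus 0.2% wetting agent). Damage scored by eye roughly 3 weeks later against untreated plants: 0% = like control, 100% = dead.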

STEME [2] = assay: Pre-emergence action against STEME; format: in vivo, Stellaria media; settings: Dosage 320 g/ha, pre-emergence
Outline: (§2)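 Seeds sown in sandy loam in wood-fiber pots and covered with soil. Greenhouse growth; visual damage scored after 3 weeks versus untreated controls (100% = dead, 0% = like control).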

AVEFA [3] = assay: Pre-emergence action against AVEFA; format: in vivo, Avena fatua; settings: dosage 320 g/ha, scored visually after 3 weeks vs untreated controls
Outline: as §2

POLCO [4] = assay: Post-emergence action against POLCO; format: in vivo, Polygonum convolvulus; settings: post-emergence, dosage 80 g/ha
Outline: as §1

VERPE [5] = assay: Post-emergence action against VERPE; format: in vivo, Veronica persica; settings: dosage 80 g/ha
Outline: as §1

HORMU = assay: Pre-emergence action against HORMU; format: in vivo, Hordeum murinum; settings: Dosage 320 g/ha
Description: (§3) Seeds of monocotyledonous and dicotyledonous weed plants and crop plants are laid out in sandy loam soil in wood-fiber pots and covered with soil. The compounds of the invention, formulated in the form of wettable powders (WP) or as emulsion concentrates (EC), are then applied to the surface of the covering soil in the form of an aqueous suspension or emulsion at a water application rate equating to […], with addition of 0.2% wetting agent. After the treatment, the pots are placed in a greenhouse and kept under good growth conditions for the trial plants. The damage to the test plants is scored visually after a test period of 3 weeks by comparison with untreated controls (herbicidal activity in percent (%): 100% activity=the plants have died, 0% activity=like control plants).

AMARE [6] = assay: Post-emergence action against AMARE; format: in vivo, Amaranthus retroflexus; settings: post-emergence, dosage 80 g/ha, visual assessment about 3 weeks after treatment vs untreated controls
Outline: as §1

ABUTH [7] = assay: Post-emergence action against ABUTH; format: in vivo, Abutilon theophrasti; settings: post-emergence, dosage 80 g/ha, visual assessment about 3 weeks after treatment vs untreated controls
Outline: as §1

SETVI [8] = assay: Pre-emergence action against SETVI; format: in vivo, Setaria viridis; settings: pre-emergence, dosage 320 g/ha, scored visually after 3 weeks vs untreated controls
Outline: as §2

STEME [9] = assay: Post-emergence action against STEME; format: in vivo, Stellaria media; settings: post-emergence, dosage 80 g/ha
Outline: as §1

MATIN [10] = assay: Post-emergence action against MATIN; format: in vivo, Matricaria inodora; settings: post-emergence, dosage 80 g/ha, visual assessment about 3 weeks after treatment vs untreated controls
Outline: as §1

AMARE [11] = assay: Pre-emergence action against AMARE; format: in vivo, Amaranthus retroflexus; settings: pre-emergence, dosage 320 g/ha, scored visually after 3 weeks vs untreated controls
Outline: as §2

POLCO [12] = assay: Pre-emergence action against POLCO; format: in vivo, Polygonum convolvulus; settings: Dosage 320 g/ha, pre-emergence
Outline: as §2

CYPES [13] = assay: Pre-emergence action against CYPES; format: in vivo, Cyperus esculentus; settings: pre-emergence, dosage 320 g/ha, scored visually after 3 weeks vs untreated controls
Outline: as §2

ECHCG [14] = assay: Post-emergence action against ECHCG; format: in vivo, Echinochloa crus-galli; settings: post-emergence, dosage 80 g/ha, visual assessment about 3 weeks after treatment vs untreated controls
Outline: as §1

ECHCG [15] = assay: Pre-emergence action against ECHCG; format: in vivo, Echinochloa crus-galli; settings: pre-emergence, dosage 320 g/ha, scored visually after 3 weeks vs untreated controls
Outline: as §2

VIOTR [16] = assay: Pre-emergence action against VIOTR; format: in vivo, Viola tricolor; settings: Dosage 320 g/ha, pre-emergence
Outline: as §2

PHBPU [17] = assay: Pre-emergence action against PHBPU; format: in vivo, Pharbitis purpurea; settings: Dosage 320 g/ha, pre-emergence
Outline: as §2

MATIN [18] = assay: Pre-emergence action against MATIN; format: in vivo, Matricaria inodora; settings: Dosage 320 g/ha, pre-emergence
Outline: as §2

VIOTR [19] = assay: Post-emergence action against VIOTR; format: in vivo, Viola tricolor; settings: post-emergence, dosage 80 g/ha
Outline: as §1

ALOMY [20] = assay: Pre-emergence action against ALOMY; format: in vivo, Alopecurus myosuroides; settings: dosage 320 g/ha; pre-emergence; scored visually after 3 weeks vs untreated controls; 100% = plants have died, 0% = like control plants
Outline: as §2

PHBPU [21] = assay: Post-emergence action against PHBPU; format: in vivo, Pharbitis purpurea; settings: post-emergence, dosage 80 g/ha
Outline: as §1

VERPE [22] = assay: Pre-emergence action against VERPE; format: in vivo, Veronica persica; settings: Dosage 320 g/ha, pre-emergence
Outline: as §2

ABUTH [23] = assay: Pre-emergence action against ABUTH; format: in vivo, Abutilon theophrasti; settings: pre-emergence, dosage 320 g/ha, scored visually after 3 weeks vs untreated controls
Outline: as §2

LOLRI = assay: Pre-emergence action against LOLRI; format: in vivo, Lolium rigidum; settings: dosage 320 g/ha, scored visually after 3 weeks vs untreated controls
Description: as §3

CYPES [24] = assay: Post-emergence action against CYPES; format: in vivo, Cyperus esculentus; settings: post-emergence, dosage 80 g/ha, visual assessment about 3 weeks after treatment vs untreated controls
Outline: as §1

ALOMY [25] = assay: Post-emergence action against ALOMY; format: in vivo, Alopecurus myosuroides; settings: Dosage 80 g/ha, post-emergence
Outline: as §1

AVEFA [26] = assay: Post-emergence action against AVEFA; format: in vivo, Avena fatua; settings: post-emergence, dosage 80 g/ha, visual assessment about 3 weeks after treatment vs untreated controls
Outline: as §1

Row | Structure (SMILES) | Pre-emergence action against STEME (STEME [2]) | Pre-emergence action against AVEFA (herbicidal activity) (AVEFA [3]) | Post-emergence action against POLCO (POLCO [4]) | Post-emergence action against VERPE (VERPE [5]) | Pre-emergence action against HORMU (HORMU) | Post-emergence action against ABUTH (herbicidal action in percent) (ABUTH [7]) | SETVI (Table B8, pre-emergence herbicidal activity) (SETVI [8]) | Post-emergence action against STEME (STEME [9]) | Post-emergence action against MATIN (herbicidal action in percent) (MATIN [10]) | Pre-emergence action against AMARE (herbicidal activity) (AMARE [11]) | Post-emergence action against ECHCG (herbicidal action in percent) (ECHCG [14]) | Pre-emergence action against ECHCG (herbicidal activity) (ECHCG [15]) | Pre-emergence action against VIOTR (VIOTR [16]) | Pre-emergence action against PHBPU (PHBPU [17]) | Pre-emergence action against MATIN (MATIN [18]) | Post-emergence action against VIOTR (VIOTR [19]) | Pre-emergence action against ALOMY (herbicidal activity in percent) (ALOMY [20]) | Post-emergence action against PHBPU (PHBPU [21]) | Pre-emergence action against VERPE (VERPE [22]) | Pre-emergence action against ABUTH (herbicidal activity) (ABUTH [23]) | other results
1 | CCn1nnnc1NC(=O)c1ccc(C(F)F)c(C(C)=O)c1SC [2-65] | 100% | 100% | 100 | 80 | 80% | 100% | 100% | 100 | 100% | 100% | 80% | 100% | 100% | 100% | 90% | 100 | 100% | 90 | 100% | 100% | Post-emergence action against SETVI (herbicidal action in percent) (SETVI [1]): 100%; Post-emergence action against AMARE (herbicidal action in percent) (AMARE [6]): 100%; Pre-emergence action against POLCO (POLCO [12]): 90%; Pre-emergence action against CYPES (herbicidal activity) (CYPES [13]): 90%
2 | CCCC(=O)c1c(C(F)(F)F)ccc(C(=O)Nc2nnnn2CC)c1Cl [2-139] | 100% | 80% | – | – | 80% | 90% | 100% | 100 | 90% | 100% | 90% | 100% | 100% | 100% | 100% | 100 | 100% | 100 | 100% | 100% | Post-emergence action against AMARE (herbicidal action in percent) (AMARE [6]): 100%; Pre-emergence action against CYPES (herbicidal activity) (CYPES [13]): 100%; Pre-emergence action against LOLRI (herbicidal activity) (LOLRI): 100%
3 | CCn1nnnc1NC(=O)c1ccc(C(F)(F)F)c(C(=O)C(C)C)c1Cl [2-140] | 100% | 80% | 80 | 80 | – | 100% | 100% | 100 | 90% | 100% | 100% | 100% | 100% | 100% | 100% | 100 | 90% | 90 | 100% | 100% | Post-emergence action against CYPES (herbicidal action in percent) (CYPES [24]): 80%; Post-emergence action against ALOMY (ALOMY [25]): 80%; Pre-emergence action against LOLRI (herbicidal activity) (LOLRI): 90%; Post-emergence action against AVEFA (herbicidal action in percent) (AVEFA [26]): 80%
4 | CCCn1nnnc1NC(=O)c1ccc(C(F)F)c(C(C)=O)c1SC [3-65] | 100% | 100% | 80 | 80 | 100% | 100% | 100% | 100 | 90% | 100% | 90% | 100% | 100% | 100% | 100% | 100 | 80% | 90 | 100% | 100% | Post-emergence action against SETVI (herbicidal action in percent) (SETVI [1]): 100%; Post-emergence action against AMARE (herbicidal action in percent) (AMARE [6]): 90%; Post-emergence action against CYPES (herbicidal action in percent) (CYPES [24]): 80%; Pre-emergence action against POLCO (POLCO [12]): 100%
